Source: patent publication US7662789B2, “Peptide substance restoring myocardium function” (“Access Bioscience” CJSC, priority 2004, dated 2010)
Marks after values point to notes of the source that are not given here. Where a SMILES comes first, the peptide text is derived from it.

Experiments:
male guinea pigs = assay: Chronic toxicity, 6 months intramuscular in guinea pigs
Description: Common toxicity of Ala-Glu-Asp-Arg (SEQ ID NO:1) tetrapeptide was studied in compliance with the requirements stated in “Manual for experimental (pre-clinical) study of new pharmaceutical substances” (2000): acute toxicity in case of single administration of the substance, as well as sub-acute and chronic toxicity in case of long-term administration of the tetrapeptide.
The studies of chronic toxicity were conducted for 6 months, basing on the duration of the recommended clinical administration of the preparation, on 96 male guinea pigs with body weight of 300-340 g. The experimental animals received the tetrapeptide daily, once a day, intramuscularly, for 6 months in the doses of 1 μg/kg, 0.1 mg/kg and 1 mg/kg in 0.5 ml of 0.9% NaCl solution. The control animals received 0.9% NaCl solution in the same volume and by the same schedule. Common methods were used for the identification of the quantity of erythrocytes, hemoglobin, reticulocytes, thrombocytes, leukocytes, as well as of the leukocyte formula, erythrocyte sedimentation rate (ESR) and erythrocyte resistance in the peripheric blood of the animals. Alongside with this general protein content in the blood serum was estimated by Lowry's method, as well as of potassium and sodium using the method of plasma spectrophotometry. After the completion of the experiment the pathomorphological study of the brain and spinal cord, spinal cord ganglia, thyroid gland, parathyroid glands, adrenal glands, testis, pituitary gland, heart, lungs, aorta, liver, kidney, urinary bladder, pancreas, stomach, small intestine, large intestine, thymus, spleen, lymph nodes and bone marrow was conducted.

isolated rat heart [1] = assay: Contractive ability of isolated rat heart after ischemia; details: 10 min re-perfusion
Description: Another experiment was devoted to the study of the tetrapeptide's effect on the restoration of isolated rat heart's ability to contract after a period of ischemia. The study was conducted on 3 groups, 8 animals in each, in case of the additionally strained cardiac muscle working mode, under conditions of induced contraction rhythm and perfusion solution temperature increase up to 37° C.
The other series of experiments conducted on 12 rat hearts was aimed at the study of the tetrapeptide's protective effect in case of its addition into the perfusate in the concentration of […] before the induction of ischemia. Then “severe” stimulation was conducted (5 Hz frequency) in the heart and contractive activity was estimated. […] The administration of the tetrapeptide in a very small dose of 0.005 μg/ml preserved the heart, which was on the verge of stopping, from fibrillation and contractive activity decrease, restoring the value of the latter index.

isolated rat heart [2] = assay: as above; details: 0.005 μg/ml; 12 rat hearts; severe stimulation 5 Hz
succinate dehydrogenase = details: myocardium slices from different animals
[3] = test system: rat myocardium, TMTD poisoning; assay: Toxicochemical myocardiopathy by tetramethyl thiuram disulfide (TMTD) poisoning in rats; type: in vivo
Description: The experiment was conducted on 40 white mongrel rats with body weight of 220-230 g. The animals were randomly subdivided into four groups. The intoxication of animals with tetramethyl thiuram disulfide (TMTD) industrial poison was conducted in the form of 20-day course of 5% oil TMTD solution administration in the dose of 25 mg/kg intragastrically. The tetrapeptide was administered during the last 10 days of the experiment intramuscularly in the dose of 0.05 μg per animals in sterile 0.9% NaCl solution. Upon expiry of the indicated terms both the control and experimental animals were killed by momentary decapitation. Myocardium fragments were fixed by 12% formalin solution. Paraphin slices were stained by hematoxylin-eosine, as well as by Van Gison, Brachet, with sudan III, IV. Intact animals served as the control.

white mongrel male mice = assay: Acute toxicity, single intramuscular administration in mice; type: in vivo; details: single i.m. 1-5 mg/kg; dose 5000 times exceeding the therapeutic one
Description: The experiment aimed at the study of acute toxicity was conducted on 66 white mongrel male mice with body weight of 20-23 g. The animals were randomly subdivided into 6 equal groups. The substance was administered once, intramuscularly, in 0.25 ml volume, in the doses of 1 mg/kg, 2 mg/kg, 3 mg/kg, 4 mg/kg and 5 mg/kg in sterile 0.9% NaCl solution. The control animals received 0.9% NaCl solution.

[4] = 0.005 μg/ml, listed as tetrapeptide
[5] = TMTD 25 mg/kg 20 days + tetrapeptide 0.05 μg per animal i.m. last 10 days
[6] = intact animals, 0.05 μg per animal i.m. 10 days

Compound: C[C@H](N)C(=O)N[C@@H](CCC(=O)O)C(=O)N[C@@H](CC(=O)O)C(=O)N[C@@H](CCCNC(=N)N)C(=O)O [Tetrapeptide, L-alanyl-L-glutamyl-L-aspartyl-L-arginine] (H-AEDR-OH)
- Basophils (male guinea pigs; 1 μg/kg, 3 months): 0.69 ± 0.05%
- ESR (male guinea pigs; 1 μg/kg, 3 months): 1.87 ± 0.07 mm/hour
- Eosinophils (male guinea pigs; 1 μg/kg, 3 months): 0.64 ± 0.04%
- Erythrocyte resistance, minimum (male guinea pigs; 1 μg/kg, 3 months): 0.33 ± 0.02 % NaCl
- Erythrocytes (male guinea pigs; 1 μg/kg, 3 months): 5.4 ± 0.2 ×10^12/l
- General protein in the blood serum (male guinea pigs; 1 μg/kg, 3 months): 72.6 ± 3.3 g/L
- Hemoglobin (male guinea pigs; 1 μg/kg, 3 months): 13.8 ± 1.2
- Leukocytes (male guinea pigs; 1 μg/kg, 3 months): 11.2 ± 0.8 ×10^9/l
- Lymphocytes (male guinea pigs; 1 μg/kg, 3 months): 50.7 ± 2.4%
- Monocytes (male guinea pigs; 1 μg/kg, 3 months): 2.4 ± 0.03%
- Potassium in the blood serum (male guinea pigs; 1 μg/kg, 3 months): 5.3 ± 1.8 mmol/L
- Reticulocytes (male guinea pigs; 1 μg/kg, 3 months): 1.2 ± 0.07%
- Segmented neutrophils (male guinea pigs; 1 μg/kg, 3 months): 44.9 ± 2.5%
- Sodium in the blood serum (male guinea pigs; 1 μg/kg, 3 months): 154.8 ± 6.8 mmol/L
- Stab neutrophils (male guinea pigs; 1 μg/kg, 3 months): 0.27 ± 0.07%
- Thrombocytes (male guinea pigs; 1 μg/kg, 3 months): 143.6 ± 8.4 ×10^9/l
- Basophils (male guinea pigs; 1 μg/kg, 6 months): 0.71 ± 0.05%
- ESR (male guinea pigs; 1 μg/kg, 6 months): 2.05 ± 0.04 mm/hour
- Eosinophils (male guinea pigs; 1 μg/kg, 6 months): 0.75 ± 0.08%
- Erythrocyte resistance, maximum (male guinea pigs; 1 μg/kg, 6 months): 0.44 ± 0.04 % NaCl
- Erythrocyte resistance, minimum (male guinea pigs; 1 μg/kg, 6 months): 0.35 ± 0.05 % NaCl
- Erythrocytes (male guinea pigs; 1 μg/kg, 6 months): 5.2 ± 0.4 ×10^12/l
- General protein in the blood serum (male guinea pigs; 1 μg/kg, 6 months): 73.1 ± 3.6 g/L
- Hemoglobin (male guinea pigs; 1 μg/kg, 6 months): 14.2 ± 0.6
- Leukocytes (male guinea pigs; 1 μg/kg, 6 months): 11.9 ± 0.5 ×10^9/l
- Lymphocytes (male guinea pigs; 1 μg/kg, 6 months): 52.7 ± 2.2%
- Monocytes (male guinea pigs; 1 μg/kg, 6 months): 2.5 ± 0.05%
- Potassium in the blood serum (male guinea pigs; 1 μg/kg, 6 months): 5.4 ± 2.2 mmol/L
- Reticulocytes (male guinea pigs; 1 μg/kg, 6 months): 1.3 ± 0.08%
- Segmented neutrophils (male guinea pigs; 1 μg/kg, 6 months): 43.4 ± 3.2%
- Sodium in the blood serum (male guinea pigs; 1 μg/kg, 6 months): 154.6 ± 6.9 mmol/L
- Stab neutrophils (male guinea pigs; 1 μg/kg, 6 months): 0.36 ± 0.05%
- Thrombocytes (male guinea pigs; 1 μg/kg, 6 months): 144.9 ± 9.8 ×10^9/l
- Chronic toxicity, side effects (male guinea pigs; 6 months i.m. daily, 1 μg/kg, 0.1 mg/kg, 1 mg/kg, 100-1000 times the therapeutic doses): absence of side effects
- General status, blood indices, internal organs, cardiovascular, respiratory, liver and kidney functions (male guinea pigs; long-term administration): no pathologic changes
- Amplitude of contractions, % of init. (isolated rat heart [1]; 0.005 μg/ml): 75 ± 12 % of init.
- Coronary duct (isolated rat heart [1]; 0.005 μg/ml): 10.8 ± 1.6 mL/min
- Extent of contracture (isolated rat heart [1]; 0.005 μg/ml): 1.3 ± 0.4 mm
- Max. speed of contraction, % of init. (isolated rat heart [1]; 0.005 μg/ml): 56 ± 10 % of init.
- Max. speed of relaxation, % of init. (isolated rat heart [1]; 0.005 μg/ml): 69 ± 8 % of init.
- Amplitude of contractions, % of init. (isolated rat heart [1]; [4]): 75±12 % of init.
- Coronary duct (isolated rat heart [1]; [4]): 10.8 ± 1.6 mL/min
- Amplitude of contractions, % of init. (isolated rat heart [1]; 0.05 μg/ml): 36 ± 10 % of init.
- Coronary duct (isolated rat heart [1]; 0.05 μg/ml): 9.6 ± 0.7 mL/min
- Extent of contracture (isolated rat heart [1]; 0.05 μg/ml): 2.5 ± 0.3 mm
- Max. speed of contraction, % of init. (isolated rat heart [1]; 0.05 μg/ml): 28 ± 7 % of init.
- Max. speed of relaxation, % of init. (isolated rat heart [1]; 0.05 μg/ml): 28 ± 6 % of init.
- Protective effect when added into the perfusate before induced ischemia (isolated rat heart [2]): restrained the growth of contracture during the period of ischemia
- Activity of succinate dehydrogenase (succinate dehydrogenase): inhibiting effect
- Cardiomyocyte nuclei volume [3, 5]: 365.4 ± 13.8** μm^3
- Nuclear-cytoplasmatic ratio [3, 5]: 0.28±0.03
- Parenchyma volume [3, 5]: 0.83 ± 0.02** cm^3/cm^3
- Stroma volume [3, 5]: 0.180±0.02 cm^3/cm^3
- Vessels volume, Vcap/Vcmc [3, 5]: 0.07 ± 0.02 Vcap/Vcmc
- Increase of the filling of the myocardium ([3]; intact animals, versus control): 11%
- Increase of the volume of cardiomyocytes' nuclei ([3]; intact animals, versus control): 14%
- Cardiomyocyte nuclei volume [3, 6]: 386.2 ± 2.1* μm^3
- Nuclear-cytoplasmatic ratio [3, 6]: 0.40 ± 0.04
- Parenchyma volume [3, 6]: 0.82 ± 0.04 cm^3/cm^3
- Stroma volume [3, 6]: 0.159 ± 0.05 cm^3/cm^3
- Vessels volume, Vcap/Vcmc [3, 6]: 0.08 ± 0.006 Vcap/Vcmc
- Acute toxicity, toxic reactions (white mongrel male mice): does not cause toxic reactions
